# In patent US10053433B2, “Androgen receptor antagonists” (THE REGENTS OF THE UNIVERSITY OF CALIFORNIA, priority 2014, dated 2018):
# Like-named read-outs stand apart in the source and are kept apart here.
# Assays:
# [1] = molecular target: AR ligand-binding domain (AR LBD) (Homo sapiens (Human), UniProt P10275); experiment: Gal4-luciferase reporter assay, Gal-AR LBD in HeLa cells; type: cell-based
# From the text: In order to test the effect of ligands on the AR ligand-binding domain (AR LBD), a Gal4-luciferase reporter assay was used. Briefly, the AR LBD is expressed as a fusion with the Gal4 transcription factor, which binds to the Gal4 reporter DNA. Upon activation with agonist hormone (DHT), the Gal-AR LBD binds to the Gal4 reporter gene, which in turn drives the transcription (and subsequently translation) of the reporter luciferase. The effect of antiandrogens (competitive antagonists) on this process is measured by quantifying the amount of luciferase activity after 24 hours in the presence of varying concentrations of antiandrogens. From these values, an IC50 for each antagonist is calculated. Experimentally, Hela cells were maintained in Dulbecco's modified Eagle's medium H-21 4.5 g/L glucose, containing 10% steroid depleted fetal bovine serum, 50 units/mL penicillin. For transfection, (1×10^5) cells per well were plated and incubated overnight. […] Cells were induced with 1 nM DHT and 0.1 nM-30 uM test compounds after 3 hr and then incubated over night. Cells were collected, and pellets were lysed in 100 μL of 100 mM Tris-HCl (pH 7.5) containing 0.1% Triton X-100. Luciferase and β-galactosidase activities were measured using the Luciferase Assay System (Promega) and Galacto-Light Plus-galactosidase reporter gene assay system (Applied Biosystems), according to the manufacturer's instructions.
# full length AR = full length AR (Homo sapiens (Human), UniProt P10275); experiment: mmTV-luciferase reporter assay, full length AR in HeLa cells; type: cell-based
# Sequence of full length AR (P10275 other isoform, or with tags, fused parts or gaps): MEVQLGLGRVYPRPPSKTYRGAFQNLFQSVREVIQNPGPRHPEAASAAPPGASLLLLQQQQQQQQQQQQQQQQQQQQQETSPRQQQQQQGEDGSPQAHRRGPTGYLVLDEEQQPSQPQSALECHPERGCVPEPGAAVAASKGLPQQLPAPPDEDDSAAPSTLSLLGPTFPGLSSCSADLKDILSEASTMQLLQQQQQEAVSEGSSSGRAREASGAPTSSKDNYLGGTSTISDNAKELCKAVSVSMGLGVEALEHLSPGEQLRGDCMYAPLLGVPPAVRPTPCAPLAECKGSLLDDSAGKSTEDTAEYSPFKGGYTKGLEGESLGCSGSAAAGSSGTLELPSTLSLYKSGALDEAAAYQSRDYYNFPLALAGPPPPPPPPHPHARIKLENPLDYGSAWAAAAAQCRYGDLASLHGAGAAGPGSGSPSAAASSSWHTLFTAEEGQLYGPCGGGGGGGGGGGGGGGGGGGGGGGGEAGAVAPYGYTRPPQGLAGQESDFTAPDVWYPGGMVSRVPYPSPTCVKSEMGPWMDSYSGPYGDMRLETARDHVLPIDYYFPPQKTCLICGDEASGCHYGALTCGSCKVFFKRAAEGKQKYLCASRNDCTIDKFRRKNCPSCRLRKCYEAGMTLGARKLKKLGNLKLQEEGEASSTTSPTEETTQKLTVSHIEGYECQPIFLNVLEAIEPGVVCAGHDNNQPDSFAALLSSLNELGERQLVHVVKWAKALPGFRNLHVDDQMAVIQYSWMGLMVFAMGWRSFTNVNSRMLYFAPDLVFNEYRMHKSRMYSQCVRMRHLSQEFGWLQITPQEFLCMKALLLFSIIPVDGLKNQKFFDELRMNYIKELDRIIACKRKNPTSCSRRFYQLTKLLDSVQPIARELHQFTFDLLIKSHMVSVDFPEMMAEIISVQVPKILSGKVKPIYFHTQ
# Protocol: In order to test the effect of antiandrogens on full length AR, a mmTV-luciferase reporter assay was used. An AR-response element is contained within the mmTV sequence and drives the expression of luciferase. The effect of antiandrogens (competitive antagonists) on this process is measured by quantifying the amount of luciferase activity after 24 hours in the presence of varying concentrations of antiandrogens. From these values, an IC50 for each antagonist is calculated. Experimentally, HeLa cells were maintained in Dulbecco's modified Eagle's medium H-21 4.5 g/L glucose, containing 10% steroid depleted fetal bovine serum, 50 units/mL penicillin. For transfection, (1×10^5) cells per well were plated and incubated overnight. […] Cells were induced with 1 nM DHT and 0.1 nM-30 uM compounds after 3 hrs and then incubated overnight. Cells were collected, and pellets were lysed in 100 μL of 100 mM Tris-HCl (pH 7.5) containing 0.1% Triton X-100. Luciferase and β-galactosidase activities were measured using the Luciferase Assay System (Promega) and Galacto-Light Plus-galactosidase reporter gene assay system (Applied Biosystems), according to the manufacturer's instructions.
# [2] = molecular target: endogenous full length AR (Homo sapiens (Human), UniProt P10275, T878A); experiment: mmTV-luciferase reporter assay, endogenous AR in LNCaP cells; type: cell-based; settings: 10 nM DHT, read-out: LVCaP data
# Sequence of endogenous full length AR (P10275 whole entry T878A): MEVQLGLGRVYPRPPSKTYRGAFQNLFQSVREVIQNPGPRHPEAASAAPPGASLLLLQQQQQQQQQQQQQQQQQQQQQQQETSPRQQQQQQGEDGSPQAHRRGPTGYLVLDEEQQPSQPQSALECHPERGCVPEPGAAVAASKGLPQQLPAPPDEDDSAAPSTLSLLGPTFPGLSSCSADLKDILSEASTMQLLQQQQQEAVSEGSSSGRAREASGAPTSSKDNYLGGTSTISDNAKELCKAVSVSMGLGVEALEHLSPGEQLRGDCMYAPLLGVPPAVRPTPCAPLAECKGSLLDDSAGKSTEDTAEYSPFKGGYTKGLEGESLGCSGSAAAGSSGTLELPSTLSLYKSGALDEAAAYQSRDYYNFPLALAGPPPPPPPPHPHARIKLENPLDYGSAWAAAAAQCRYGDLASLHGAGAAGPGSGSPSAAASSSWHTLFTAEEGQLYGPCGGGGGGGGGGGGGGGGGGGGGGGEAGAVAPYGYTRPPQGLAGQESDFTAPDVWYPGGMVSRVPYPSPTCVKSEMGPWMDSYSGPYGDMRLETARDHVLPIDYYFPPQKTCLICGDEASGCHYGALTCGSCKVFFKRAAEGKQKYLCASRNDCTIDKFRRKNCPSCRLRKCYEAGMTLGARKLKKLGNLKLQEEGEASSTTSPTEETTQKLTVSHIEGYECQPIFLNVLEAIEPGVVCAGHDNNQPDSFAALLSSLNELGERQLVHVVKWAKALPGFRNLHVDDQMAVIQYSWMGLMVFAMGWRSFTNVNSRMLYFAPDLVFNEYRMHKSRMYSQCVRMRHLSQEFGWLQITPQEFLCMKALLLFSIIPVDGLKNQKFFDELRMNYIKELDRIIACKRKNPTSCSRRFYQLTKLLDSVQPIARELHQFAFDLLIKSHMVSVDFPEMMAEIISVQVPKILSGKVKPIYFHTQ
# [3] = in vivo; cited from earlier work
# [4] = Gal-AR LBD, Gal4-luciferase reporter, HeLa cells, 1 nM DHT, read-out: LBD IC50
# [5] = in relationship to the experimental casodex data
# [6] = full length AR, mmTV-luciferase reporter, HeLa cells, 1 nM DHT, read-out: FL IC50
# Sequence of AR ligand-binding domain (AR LBD) (P10275 669-900): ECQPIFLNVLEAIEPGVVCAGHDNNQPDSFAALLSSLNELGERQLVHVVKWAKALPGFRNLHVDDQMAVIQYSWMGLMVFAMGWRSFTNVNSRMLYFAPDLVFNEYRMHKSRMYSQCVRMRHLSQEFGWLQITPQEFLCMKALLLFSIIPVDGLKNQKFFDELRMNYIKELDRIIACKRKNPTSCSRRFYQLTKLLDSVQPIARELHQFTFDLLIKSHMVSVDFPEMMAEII
compound,measurement,setting,value
C[C@](O)(CS(=O)(=O)c1ccc(F)cc1)C(=O)Nc1cc(C(F)(F)F)c(C#N)cn1 [FC 3.077],Fold change*,[1],0.74
same,Fold chg (LBD),[1],0.74
same,IC50,[1],0.49 ± 0.06 µM
same,Fold chg (FL),full length AR,0.33
C=CS(=O)(=O)C(c1ccc(NC(=O)[C@@](C)(O)CS(=O)(=O)c2ccc(F)cc2)cc1C(F)(F)F)S(=O)(=O)C=C [FC 4.025],IC50,[1]; [4],0.58 ± 0.11 µM
same,Fold chg (LBD),[1]; [5],0.62
same,IC50,full length AR; [6],1.29 ± 1.29 µM
same,Fold chg (FL),full length AR; [5],0.78
C=CC(=O)Nc1ccc(NC(=O)[C@@](C)(O)CS(=O)(=O)c2ccc(F)cc2)cc1C(F)(F)F [FC 4.039],IC50,[1]; [4],0.75 ± 0.26 µM
same,Fold chg (LBD),[1]; [5],0.48
C[C@](O)(CS(=O)(=O)c1ccc(F)cc1)C(=O)Nc1cccc(C(F)(F)F)c1 [FC 4.116],IC50,[1]; [4],2.53 ± 1.16 µM
same,Fold change*,"[1]; Table 4, relative to CDX",0.14
same,Fold chg (LBD),[1]; [5],0.14
same,IC50,[2],0.53 ± 0.27 µM
same,IC50,full length AR; [6],71.7 µM
same,Fold chg (FL),full length AR; [5],0.014
C[C@](O)(CS(=O)(=O)c1ccc(F)cc1)C(=O)Nc1cc(C(F)(F)F)ccn1 [FC 4.125],IC50,[1],22.4 ± 41.8 µM
same,Fold change*,"[1]; Table 4, relative to CDX",0.016
same,Fold chg (LBD),[1]; [5],0.016
C[C@](O)(CS(=O)(=O)c1ccc(F)cc1)C(=O)Nc1cncc(C(F)(F)F)c1 [FC 4.126],IC50,[1]; [4],1.55 ± 0.41 µM
same,Fold change*,"[1]; Table 4, relative to CDX",0.23
same,Fold chg (LBD),[1]; [5],0.23
same,IC50,[2],0.11 ± 0.02 µM
same,IC50,full length AR; [6],12.4 ± 14.2 µM
same,Fold chg (FL),full length AR; [5],0.08
C[C@](O)(CS(=O)(=O)c1ccc(F)cc1)C(=O)Nc1ccc([N+](=O)[O-])c(C(F)(F)F)c1 [FC 4.127],Fold change*,[1],0.05
same,Fold chg (LBD),[1],0.050
same,IC50,[1],7.26 ± 10.7 µM
same,Fold chg (FL),full length AR,0.11
same,IC50,full length AR,8.74 ± 15.8 µM
CC(O)(CS(=O)(=O)c1ccc(F)cc1)C(=O)Nc1ccc(C#N)c(C(F)(F)F)c1 (stereo not shown) [bicalutamide],tolerability,[3],well tolerated with very few side effects
